In patent US20150336889A1, “INDOLE DERIVATIVES, PHARMACEUTICAL COMPOSITIONS CONTAINING SUCH INDOLES AND THEIR USE AS DNA METHYLATION MODULATORS” (IKERCHEM, S.L., priority 2012, published 2015):
pIC50: −log10 of the molar value. Structures can show the parent of a compound that is named as a salt.

The compounds below were run against T1, Human DNMT1 (Homo sapiens, UniProt P26358) (assay: DNMT1 enzymatic activity inhibition, radioisotope-based 3H-SAM filter binding assay). Details: 1 μM SAM, 25 nM DNMT1, 0.005 mg/ml Poly(dI-dC), 30° C. 1 hour, 10-dose.
T1 construct: a-a 2-1632, with N-terminal GST tag; GST (N)
Format: biochemical
Experimental: The inhibition of the enzymatic activity of DNMT1 was tested using low volume radioisotope-based assay which uses tritium-labeled AdoMet (^3H-SAM) as a methyl donor. Inhibitors diluted in DMSO were added by using acoustic technology (Echo550, Labcyte Inc. Sunnyvale, Calif.) into enzyme/substrate mixture in nano-liter range. The reaction was initiated by the addition of ^3H-SAM, and incubated at 30° C. for 1 hour. Total final methylations on the substrate poly(dI-dC) were detected by a filter binding approach. Data analysis was performed using GraphPad Prism software (La Jolla, Calif.) for IC50 curve fits.

T1 sequence (P26358 2-1632 isoform P26358-2): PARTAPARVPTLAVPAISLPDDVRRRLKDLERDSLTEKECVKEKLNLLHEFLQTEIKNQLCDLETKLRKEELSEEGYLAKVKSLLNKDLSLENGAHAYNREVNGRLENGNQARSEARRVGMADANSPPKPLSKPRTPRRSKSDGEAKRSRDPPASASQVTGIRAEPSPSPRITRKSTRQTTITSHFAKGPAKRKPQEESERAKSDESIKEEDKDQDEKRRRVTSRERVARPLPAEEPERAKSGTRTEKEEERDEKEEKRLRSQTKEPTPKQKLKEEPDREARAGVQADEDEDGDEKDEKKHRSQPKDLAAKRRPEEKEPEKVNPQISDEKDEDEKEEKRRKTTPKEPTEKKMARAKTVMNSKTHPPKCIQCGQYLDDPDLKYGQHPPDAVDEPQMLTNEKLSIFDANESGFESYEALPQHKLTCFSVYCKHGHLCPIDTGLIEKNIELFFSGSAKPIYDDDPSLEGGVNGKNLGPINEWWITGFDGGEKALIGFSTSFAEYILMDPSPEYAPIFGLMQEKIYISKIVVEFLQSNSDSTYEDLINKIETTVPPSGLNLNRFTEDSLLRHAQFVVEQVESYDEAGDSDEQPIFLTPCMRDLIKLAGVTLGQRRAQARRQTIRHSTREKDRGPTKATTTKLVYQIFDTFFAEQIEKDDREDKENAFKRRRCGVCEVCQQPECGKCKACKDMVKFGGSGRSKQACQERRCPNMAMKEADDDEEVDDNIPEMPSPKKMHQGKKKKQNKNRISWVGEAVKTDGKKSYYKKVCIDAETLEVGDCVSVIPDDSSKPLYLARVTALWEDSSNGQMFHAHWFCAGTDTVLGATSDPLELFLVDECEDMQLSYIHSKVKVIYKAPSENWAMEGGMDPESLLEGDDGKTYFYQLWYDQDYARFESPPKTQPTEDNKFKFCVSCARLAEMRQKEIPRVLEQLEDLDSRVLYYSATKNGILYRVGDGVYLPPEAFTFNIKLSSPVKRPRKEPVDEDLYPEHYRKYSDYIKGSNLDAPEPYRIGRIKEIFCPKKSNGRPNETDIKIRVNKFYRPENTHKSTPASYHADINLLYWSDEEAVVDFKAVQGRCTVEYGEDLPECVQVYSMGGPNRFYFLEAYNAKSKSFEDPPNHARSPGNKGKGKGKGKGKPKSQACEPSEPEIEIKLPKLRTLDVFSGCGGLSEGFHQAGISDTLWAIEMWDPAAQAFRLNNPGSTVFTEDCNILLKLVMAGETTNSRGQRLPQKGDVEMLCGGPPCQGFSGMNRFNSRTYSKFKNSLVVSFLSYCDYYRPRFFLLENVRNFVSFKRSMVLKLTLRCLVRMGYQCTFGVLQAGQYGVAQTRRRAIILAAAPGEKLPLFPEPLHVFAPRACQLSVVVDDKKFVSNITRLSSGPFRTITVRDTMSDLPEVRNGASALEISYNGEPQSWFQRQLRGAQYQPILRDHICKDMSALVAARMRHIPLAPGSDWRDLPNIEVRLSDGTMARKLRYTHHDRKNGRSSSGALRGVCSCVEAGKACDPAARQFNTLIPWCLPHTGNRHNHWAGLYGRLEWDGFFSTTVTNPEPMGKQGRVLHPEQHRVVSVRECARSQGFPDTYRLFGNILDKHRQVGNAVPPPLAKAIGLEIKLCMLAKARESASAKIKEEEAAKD

**Q.** `COc1ccc2c(-c3ccc(O)cc3)cn(CC(=O)c3ccc(O)cc3)c2c1` [Example 1, 1-(4-hydroxyphenyl)-2-[3-(4-hydroxyphenyl)-6-methoxy-1H-indol-1-yl]ethanone] was tested. Which pIC50 did it give?
**A.** 4.14

**Q.** With `COc1ccc2c(-c3cccc(O)c3)cn(CC(=O)c3cccc(O)c3)c2c1` [Example 2, 1-(3-hydroxyphenyl)-2-[3-(3-hydroxyphenyl)-6-methoxy-1H-indol-1-yl]ethanone] as the compound, how does the pIC50 read?
**A.** 4.51

**Q.** How did the pIC50 turn out when `COc1ccc2c(-c3ccccc3O)cn(CC(=O)c3ccccc3O)c2c1` [Example 3, 1-(2-hydroxyphenyl)-2-[3-(2-hydroxyphenyl)-6-methoxy-1H-indol-1-yl]ethanone] was run?
**A.** 4.25

**Q.** `COc1ccc2c(-c3ccc(O)c(O)c3O)cn(CC(=O)c3ccc(O)c(O)c3O)c2c1` [Example 5, 2-[6-methoxy-3-(2,3,4-trihydroxyphenyl)-1H-indol-1-yl]-1-(2,3,4-trihydroxyphenyl) ethanone] was tested. Which pIC50 did it give?
**A.** 5.45

**Q.** With `COc1cc(OC)c2c(-c3ccccc3O)cn(CC(=O)c3ccccc3O)c2c1` [Example 7, 1-(2-hydroxyphenyl)-2-[3-(2-hydroxyphenyl)-4,6-dimethoxy-1H-indol-1-yl]ethanone] as the compound, how does the pIC50 read?
**A.** 4.48

**Q.** `COc1cc(OC)c2c(-c3ccc(O)cc3O)cn(CC(=O)c3ccc(O)cc3O)c2c1` [Example 9, 1-(2,4-dihydroxyphenyl)-2-[3-(2,4-dihydroxyphenyl)-4,6-dimethoxy-1H-indol-1-yl]ethanone] was tested. Which pIC50 did it give?
**A.** 3.74

**Q.** `COc1cc(OC)c2c(-c3cc(O)cc(O)c3)cn(CC(=O)c3cc(O)cc(O)c3)c2c1` [Example 10, 1-(3,5-dihydroxyphenyl)-2-[3-(3,5-dihydroxyphenyl)-4,6-dimethoxy-1H-indol-1-yl]ethanone] was tested. Which pIC50 did it give?
**A.** 4.35

**Q.** With `COc1cc(OC)c2c(-c3ccc(F)cc3)cn(CC(=O)c3ccc(F)cc3)c2c1` [Example 12, 1-(4-fluorophenyl)-2-[3-(4-fluorophenyl)-4,6-dimethoxy-1H-indol-1-yl]ethanone] as the compound, how does the pIC50 read?
**A.** 3.98

**Q.** `COc1ccc(OC)c2c1c(-c1ccc(O)cc1)cn2CC(=O)c1ccc(O)cc1` [Example 13, 1-(4-hydroxyphenyl)-2-[3-(4-hydroxyphenyl)-4,7-dimethoxy-1H-indol-1-yl]ethanone] was tested. Which pIC50 did it give?
**A.** 4.01

**Q.** With `COc1cc2c(-c3ccc(O)cc3)cn(CC(=O)c3ccc(O)cc3)c2cc1OC` [Example 14, 1-(4-hydroxyphenyl)-2-[3-(4-hydroxyphenyl)-5,6-dimethoxy-1H-indol-1-yl]ethanone] as the compound, how does the pIC50 read?
**A.** 4.36

**Q.** With `COc1cc2c(cc1O)c(-c1ccc(O)cc1)cn2CC(=O)c1ccc(O)cc1` [Example 15, 2-[5-hydroxy-3-(4-hydroxyphenyl)-6-methoxy-1H-indol-1-yl]-1-(4-hydroxyphenyl)ethanone] as the compound, how does the pIC50 read?
**A.** 3.24

**Q.** How did the pIC50 turn out when `O=C(Cn1cc(-c2ccc(O)cc2)c2ccc(O)cc21)c1ccc(O)cc1` [Example 17, 2-[6-hydroxy-3-(4-hydroxyphenyl)-1H-indol-1-yl]-1-(4-hydroxyphenyl) ethanone] was run?
**A.** 4.29

**Q.** With `O=C(Cn1cc(-c2ccc(O)cc2)c2cc(O)ccc21)c1ccc(O)cc1` [Example 18, 2-[5-hydroxy-3-(4-hydroxyphenyl)-1H-indol-1-yl]-1-(4-hydroxyphenyl) ethanone] as the compound, how does the pIC50 read?
**A.** 4.48

**Q.** With `O=C(Cn1cc(-c2ccc(O)cc2)c2cc(F)ccc21)c1ccc(O)cc1` [Example 19, 2-[5-fluoro-3-(4-hydroxyphenyl)-1H-indol-1-yl]-1-(4-hydroxyphenyl) ethanone] as the compound, how does the pIC50 read?
**A.** 4.23

**Q.** How did the pIC50 turn out when `O=C(Cn1cc(-c2ccc(O)cc2)c2ccccc21)c1ccc(O)cc1` [Example 20, 1-(4-hydroxyphenyl)-2-[3-(4-hydroxyphenyl)-1H-indol-1-yl]ethanone] was run?
**A.** 3.62

**Q.** How did the pIC50 turn out when `COc1cc(OC)c2c(-c3ccc(O)cc3)cn(C/C(=N/O)c3ccc(O)cc3)c2c1` [Example 21, (E)-1-(4-Hydroxyphenyl)-2-[3-(4-hydroxyphenyl)-4,6-dimethoxy-1H-indol-1-yl]ethanone oxime] was run?
**A.** 3.98

**Q.** With `COc1cc(OC)c2c(-c3ccc(O)cc3)cn(C/C(=N\O)c3ccc(O)cc3)c2c1` [Example 22, (Z)-1-(4-hydroxyphenyl)-2-[3-(4-hydroxyphenyl)-4,6-dimethoxy-1H-indol-1-yl]ethanone oxime] as the compound, how does the pIC50 read?
**A.** 4.65

**Q.** With `COc1cccc(N(CC(=O)c2ccc(O)c(O)c2O)CC(=O)c2ccc(O)c(O)c2O)c1` [Example 23, 2,2′-[(3-methoxyphenyl)azanediyl]-bis[1-(2,3,4-trihydroxyphenyl)ethanone]] as the compound, how does the pIC50 read?
**A.** 4.56

**Q.** `COc1cc(OC)cc(N(CC(=O)c2ccc(O)c(O)c2O)CC(=O)c2ccc(O)c(O)c2O)c1` [Example 24, 2,2′-[(3,5-dimethoxyphenyl)azanediyl]-bis[1-(2,3,4-trihydroxyphenyl)ethanone]] was tested. Which pIC50 did it give?
**A.** 4.81

**Q.** With `COc1ccc2c(-c3ccc(O)cc3)cn(CC(=O)c3ccc(O)cc3)c2c1` [Example 25, potassium phenoxide salt of 1-(4-hydroxyphenyl)-2-[3-(4-hydroxyphenyl)-6-methoxy-1H-indol-1-yl]ethanone] as the compound, how does the pIC50 read?
**A.** 4.71

**Q.** With `COc1cc(OC)c2c(-c3ccc(O)cc3)cn(CC(=O)c3ccc(O)cc3)c2c1` [Example 26, potassium phenoxide salt of 1-(4-hydroxyphenyl)-2-[3-(4-hydroxyphenyl)-4,6-dimethoxy-1H-indol-1-yl]ethanone] as the compound, how does the pIC50 read?
**A.** 4.39

**Q.** How did the pIC50 turn out when `COc1cc(OC)c2c(-c3ccc(O)cc3)cn(CC(=O)c3ccc(O)cc3)c2c1` [Example 27, calcium phenoxide salt of 1-(4-hydroxyphenyl)-2-[3-(4-hydroxyphenyl)-4,6-dimethoxy-1H-indol-1-yl]ethanone] was run?
**A.** 4.33
